The term pIC50 denotes the IC50 on a negative log10 scale, so that one unit is a factor of ten. One may read the Papp as a coefficient for how fast a substance crosses the barrier.

pIC50: −log10 of the molar value. A value given as a limit tells only on which side of the number the result lay.

The target in data set [1] is T1, Vascular endothelial growth factor receptor 2 (Homo sapiens, UniProt P35968). Briefly: Inhibition of VEGFR2 by cell-based assay. It is filed as functional.
In data set [2] the target is T1, Vascular endothelial growth factor receptor 2. Briefly: Inhibition of VEGFR2 by HTRF assay. For orientation: Time-resolved FRET reads energy transfer from a long-lived donor to a nearby acceptor.
In data set [3] the target is Vascular endothelial growth factor receptor 1 (Homo sapiens, UniProt P17948). Briefly: Inhibition of VEGFR1 by HTRF assay.
Sequence of Vascular endothelial growth factor receptor 1 (P17948 whole entry, looked up): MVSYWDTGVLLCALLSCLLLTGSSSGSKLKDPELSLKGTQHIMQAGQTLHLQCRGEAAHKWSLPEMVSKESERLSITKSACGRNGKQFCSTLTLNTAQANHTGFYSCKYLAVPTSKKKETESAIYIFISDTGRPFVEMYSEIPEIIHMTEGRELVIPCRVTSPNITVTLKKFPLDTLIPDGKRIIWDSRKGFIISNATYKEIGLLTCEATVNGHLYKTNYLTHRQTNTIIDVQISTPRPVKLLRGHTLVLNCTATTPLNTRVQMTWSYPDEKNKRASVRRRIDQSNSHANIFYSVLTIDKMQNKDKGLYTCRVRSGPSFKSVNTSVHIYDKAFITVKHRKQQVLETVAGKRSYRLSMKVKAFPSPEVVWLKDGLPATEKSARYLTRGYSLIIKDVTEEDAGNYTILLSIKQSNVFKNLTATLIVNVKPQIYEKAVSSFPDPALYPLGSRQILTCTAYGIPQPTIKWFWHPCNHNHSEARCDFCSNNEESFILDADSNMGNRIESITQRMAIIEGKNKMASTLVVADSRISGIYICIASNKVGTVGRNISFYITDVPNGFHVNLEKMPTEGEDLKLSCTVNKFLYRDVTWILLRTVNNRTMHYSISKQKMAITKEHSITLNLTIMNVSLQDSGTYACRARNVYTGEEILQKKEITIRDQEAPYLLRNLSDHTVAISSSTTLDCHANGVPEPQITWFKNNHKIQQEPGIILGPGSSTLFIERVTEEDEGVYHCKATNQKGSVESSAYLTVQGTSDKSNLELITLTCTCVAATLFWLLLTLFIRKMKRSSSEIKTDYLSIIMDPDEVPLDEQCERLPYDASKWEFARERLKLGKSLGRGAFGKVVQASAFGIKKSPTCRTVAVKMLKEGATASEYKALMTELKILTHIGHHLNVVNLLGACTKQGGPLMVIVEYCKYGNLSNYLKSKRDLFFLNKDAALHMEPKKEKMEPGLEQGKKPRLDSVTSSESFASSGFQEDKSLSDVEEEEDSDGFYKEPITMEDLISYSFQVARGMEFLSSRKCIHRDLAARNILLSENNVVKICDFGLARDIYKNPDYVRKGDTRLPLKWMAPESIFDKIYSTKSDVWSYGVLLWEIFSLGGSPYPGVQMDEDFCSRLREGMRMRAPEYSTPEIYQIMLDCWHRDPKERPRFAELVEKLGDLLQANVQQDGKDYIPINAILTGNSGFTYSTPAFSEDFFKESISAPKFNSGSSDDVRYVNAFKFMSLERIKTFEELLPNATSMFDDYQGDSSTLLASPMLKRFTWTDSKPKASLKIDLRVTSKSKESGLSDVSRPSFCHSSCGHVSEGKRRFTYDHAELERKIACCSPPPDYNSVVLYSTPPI
The nature of data set [4]: Intrinsic permeability across Caco-2 cell monolayers. The conditions noted are these: human. A general note: Caco-2 monolayers are a common model of the intestinal barrier.

T1 sequence (P35968 whole entry): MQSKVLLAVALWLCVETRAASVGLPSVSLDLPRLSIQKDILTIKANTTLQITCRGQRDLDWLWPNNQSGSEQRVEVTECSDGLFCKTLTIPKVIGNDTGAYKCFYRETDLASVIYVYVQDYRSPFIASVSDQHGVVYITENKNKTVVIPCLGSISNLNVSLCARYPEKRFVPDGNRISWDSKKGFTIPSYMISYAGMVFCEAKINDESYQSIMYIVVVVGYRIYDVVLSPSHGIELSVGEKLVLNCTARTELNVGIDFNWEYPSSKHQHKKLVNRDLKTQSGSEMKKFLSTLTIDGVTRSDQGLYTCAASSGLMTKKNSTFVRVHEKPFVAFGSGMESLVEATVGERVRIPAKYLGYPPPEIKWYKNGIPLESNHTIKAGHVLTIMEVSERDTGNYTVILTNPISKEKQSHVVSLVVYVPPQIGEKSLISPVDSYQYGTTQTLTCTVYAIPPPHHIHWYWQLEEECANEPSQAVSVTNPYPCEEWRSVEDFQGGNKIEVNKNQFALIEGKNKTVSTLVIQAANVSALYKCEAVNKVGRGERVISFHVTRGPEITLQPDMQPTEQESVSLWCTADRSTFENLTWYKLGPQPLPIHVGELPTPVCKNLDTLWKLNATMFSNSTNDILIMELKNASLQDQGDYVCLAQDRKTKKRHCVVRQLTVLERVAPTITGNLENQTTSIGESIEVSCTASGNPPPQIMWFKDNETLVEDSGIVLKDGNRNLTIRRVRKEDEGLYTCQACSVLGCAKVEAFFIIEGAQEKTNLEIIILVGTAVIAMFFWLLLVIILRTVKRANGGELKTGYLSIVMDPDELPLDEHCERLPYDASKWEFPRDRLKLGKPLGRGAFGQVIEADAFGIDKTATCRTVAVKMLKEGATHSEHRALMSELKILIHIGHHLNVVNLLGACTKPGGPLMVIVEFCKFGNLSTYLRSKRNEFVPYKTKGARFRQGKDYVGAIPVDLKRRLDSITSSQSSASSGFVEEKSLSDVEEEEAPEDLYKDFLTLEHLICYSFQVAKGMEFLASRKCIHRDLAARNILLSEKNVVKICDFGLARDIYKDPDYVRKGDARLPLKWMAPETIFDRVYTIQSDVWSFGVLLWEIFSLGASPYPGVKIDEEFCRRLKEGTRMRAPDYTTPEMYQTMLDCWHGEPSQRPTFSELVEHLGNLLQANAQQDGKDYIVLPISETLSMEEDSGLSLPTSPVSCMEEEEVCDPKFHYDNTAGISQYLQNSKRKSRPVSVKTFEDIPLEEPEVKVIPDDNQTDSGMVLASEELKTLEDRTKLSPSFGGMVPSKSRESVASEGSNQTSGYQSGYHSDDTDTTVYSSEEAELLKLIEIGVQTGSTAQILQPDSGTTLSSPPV

On to `Cn1cnc(NCc2ccncc2)c1C(=O)Nc1cccc(C(F)(F)F)c1`, for which the pIC50 was 6.26 in data set [1], 6.19 in data set [2] and 6.10 in data set [3].

Regarding `Cn1cnc(NCc2ccncc2)c1C(=O)Nc1ccc(C(F)(F)F)cc1`, the results for the pIC50 in data set [1], in data set [2] and in data set [3] were 5.02, 5.70 and 5.22, respectively.

In the case of `O=C(Nc1cnc2ccccc2c1)c1ccccc1NCc1ccncc1`, the Papp in data set [4] was 2.88 ×10⁻⁶ cm/s.

In the case of `Cn1cnc(NCc2ccncc2)c1C(=O)Nc1ccc(-c2ccccc2)cc1`, the figures for the pIC50 in data set [1], in data set [2] and in data set [3] were less than 5.00, 5.42 and less than 5.00, respectively.

As for `Cn1cnc(NCc2ccncc2)c1C(=O)Nc1cccc(OC(F)(F)F)c1`, the pIC50 was 6.46 in data set [1], 6.12 in data set [2] and 5.95 in data set [3].

In the case of `CC(C)c1ccc(NC(=O)c2c(NCc3ccncc3)cnn2C)cc1`, the pIC50 in data set [1] was 7.06; in data set [2], 6.54; in data set [3] it was 6.36.

Take `Cc1noc(NCc2ccncc2)c1C(=O)Nc1ccc(-c2ccccc2)cc1`: the pIC50 in data set [1], in data set [2] and in data set [3] was less than 5.00 each time.

On to `Cn1ncc(NCc2ccncc2)c1C(=O)Nc1ccc(Oc2ccccc2)cc1`, for which the pIC50 in data set [1], in data set [2] and in data set [3] was less than 5.00 throughout.

`Cc1noc(NCc2ccncc2)c1C(=O)Nc1cccc(Cl)c1`: the pIC50 in data set [1], in data set [2] and in data set [3] was less than 5.00 each time.

As to `Cn1cnc(NCc2cccnc2)c1C(=O)Nc1cccc(C(F)(F)F)c1`, the pIC50 in data set [1], in data set [2] and in data set [3] was less than 5.00 each time.

On to `Cn1cnc(NCc2cccnc2)c1C(=O)Nc1ccc(C(F)(F)F)cc1`, for which the pIC50 in data set [1], in data set [2] and in data set [3] was less than 5.00 each time.

With `Cc1noc(NCc2ccncc2)c1C(=O)Nc1ccc(C(C)C)cc1`, the pIC50 in data set [1] is 6.46; in data set [2] it was 6.36; in data set [3] it was 6.12.

As to `Cn1cnc(NCc2ccncc2)c1C(=O)Nc1ccc(Cl)c(Cl)c1`, the values for the pIC50 in data set [1], in data set [2] and in data set [3] were 7.02, 6.43 and 6.26, respectively. In addition, the Papp in data set [4] is 7.03 ×10⁻⁶ cm/s.

With `Cc1noc(NCc2ccncc2)c1C(=O)Nc1ccc(Cl)c(Cl)c1`, the results for the pIC50 in data set [1], in data set [2] and in data set [3] were 6.03, 6.01 and 5.90, respectively.

`Cc1noc(NCc2ccncc2)c1C(=O)Nc1ccc(C(F)(F)F)cc1`: the pIC50 in data set [1] is 6.74; in data set [2], 6.43; in data set [3], 6.25.

As for `Cc1ccc(NC(=O)c2c(NCc3ccncc3)ncn2C)cc1C(F)(F)F`, the Papp in data set [4] was 5.93 ×10⁻⁶ cm/s. Moreover, the results for the pIC50 in data set [2] and in data set [3] were 6.47 and 6.21, respectively.

With `Cn1cnc(NCc2ccncc2)c1C(=O)Nc1ccc(Cl)cc1`, the values for the pIC50 in data set [1], in data set [2] and in data set [3] were 5.78, 6.60 and less than 5.00, respectively. In addition, the Papp in data set [4] is 0.95 ×10⁻⁶ cm/s.

In the case of `Cn1cnc(NCc2ccncc2)c1C(=O)Nc1ccc(Cc2ccccc2)cc1`, the pIC50 in data set [1] is less than 5.00; in data set [2], 5.25; in data set [3], less than 5.00.

Turning to `Cn1cnc(NCc2ccncc2)c1C(=O)Nc1cnc2ccccc2c1`, the negative logarithm of the IC50 (pIC50) was 6.04 in data set [1], 6.64 in data set [2] and 6.46 in data set [3].

With `Cn1ncc(NCc2ccncc2)c1C(=O)Nc1cccc(C(F)(F)F)c1`, the figures for the pIC50 in data set [1], in data set [2] and in data set [3] were 5.87, 6.12 and 5.97, respectively.

Compound `Cn1ncc([N+](=O)[O-])c1C(=O)O` had a Papp in data set [4] of 5.4 ×10⁻⁶ cm/s.

`Cc1noc(NCc2ccncc2)c1C(=O)Nc1ccc(C(C)(C)C)cc1`: the pIC50 in data set [1] was 6.68; in data set [2] it was 6.55; in data set [3], 6.38.

For `Cc1noc(NCc2ccncc2)c1C(=O)Nc1ccc(Cl)cc1`, the pIC50 in data set [1], in data set [2] and in data set [3] was less than 5.00 in each case.

As for `Cc1noc(NCc2ccncc2)c1C(=O)Nc1cccc(C(F)(F)F)c1`, the pIC50 in data set [1] was 5.64; in data set [2], 5.81; in data set [3], 5.77.

With `Cc1noc(NCc2ccncc2)c1C(=O)Nc1ccc(C(F)(F)F)c(Cl)c1`, the values for the pIC50 in data set [1], in data set [2] and in data set [3] were 6.49, 6.25 and 5.95, respectively.

Take `Cn1cnc(NCc2ccncc2)c1C(=O)Nc1ccc(C(F)(F)F)c(C(F)(F)F)c1`: the pIC50 in data set [1] is 6.96; in data set [2] it was 6.24; in data set [3], 6.16.

`Cn1ncc(NCc2cccnc2)c1C(=O)Nc1ccc(C(F)(F)F)cc1`: the pIC50 in data set [1], in data set [2] and in data set [3] was less than 5.00 each time.

Consider `Cn1ncc(NCc2ccncc2)c1C(=O)Nc1cc(C(F)(F)F)cc(C(F)(F)F)c1`, for which the values for the pIC50 in data set [1], in data set [2] and in data set [3] were 6.68, 5.95 and 5.91, respectively.

Turning to `Cn1ncc(NCc2ccncc2)c1C(=O)Nc1ccc(Cl)c(C(F)(F)F)c1`, the pIC50 was 6.96 in data set [1], 5.95 in data set [2] and 5.87 in data set [3].

As to `Cn1ncc(NCc2ccncc2)c1C(=O)Nc1ccc(Cl)cc1`, the pIC50 is 6.00 in data set [1], 5.34 in data set [2] and less than 5.00 in data set [3].

For the compound `Cn1cnc(NCc2ccncc2)c1C(=O)Nc1cc(C(F)(F)F)cc(C(F)(F)F)c1`, the pIC50 in data set [1] was 6.82; in data set [2], 6.13; in data set [3] it was 5.97.

For `Cn1cnc(NCc2ccncc2)c1C(=O)Nc1ccc(OC(F)(F)F)cc1`, the pIC50 in data set [1] was 6.96; in data set [2], 5.94; in data set [3], 5.84.

As to `Cc1ccc(NC(=O)c2c(NCc3ccncc3)cnn2C)cc1C(F)(F)F`, the pIC50 was 6.99 in data set [1], 6.18 in data set [2] and 6.03 in data set [3].

In the case of `Cc1cc(NC(=O)c2c(C)noc2NCc2ccncc2)ccc1C(F)(F)F`, the pIC50 in data set [1] is 6.23; in data set [2], 6.06; in data set [3], 5.84.

As to `Cn1cnc(NCc2ccncc2)c1C(=O)Nc1ccc2cn[nH]c2c1`, the pIC50 in data set [1] is less than 5.00; in data set [2], 5.24; in data set [3], less than 5.00.

For the compound `Cn1ncc(NCc2ccncc2)c1C(=O)Nc1ccc(-c2ccccc2)cc1`, the pIC50 in data set [1], in data set [2] and in data set [3] was less than 5.00 in each case.

For `Cn1ncc(NCc2cccnc2)c1C(=O)Nc1cccc(C(F)(F)F)c1`, the pIC50 in data set [1], in data set [2] and in data set [3] was less than 5.00 in each case.

Take `Cn1ncc(NCc2ccncc2)c1C(=O)Nc1cccc(OC(F)(F)F)c1`: the pIC50 in data set [1] is 6.33; in data set [2], 5.69; in data set [3] it was 5.61.

Take `Cn1ncc(NCc2ccncc2)c1C(=O)Nc1ccc(Cc2ccccc2)cc1`: the pIC50 is less than 5.00 in data set [1], 5.25 in data set [2] and less than 5.00 in data set [3].

For the compound `Cn1ncc(NCc2ccncc2)c1C(=O)Nc1cccc(Cl)c1`, the pIC50 is less than 5.00 in data set [1], 5.69 in data set [2] and 5.49 in data set [3].

Regarding `Cn1cnc(NCc2ccncc2)c1C(=O)Nc1ccc(Oc2ccccc2)cc1`, the values for the pIC50 in data set [1], in data set [2] and in data set [3] were less than 5.00, 5.37 and less than 5.00, respectively.

On to `Cc1noc(NCc2ccncc2)c1C(=O)Nc1cnc2ccccc2c1`, for which the results for the pIC50 in data set [1], in data set [2] and in data set [3] were 5.45, 6.03 and 5.91, respectively.

For the compound `Cn1ncc(NCc2ccncc2)c1C(=O)Nc1ccc(C(F)(F)F)c(Cl)c1`, the pIC50 is 7.10 in data set [1], 6.68 in data set [2] and 6.36 in data set [3].

Take `Cc1noc(NCc2ccncc2)c1C(=O)Nc1ccc(OC(F)(F)F)cc1`: the pIC50 was 6.04 in data set [1], 5.67 in data set [2] and 5.45 in data set [3].

Take `Cn1ncc(NCc2ccncc2)c1C(=O)Nc1ccc(C(F)(F)F)c(C(F)(F)F)c1`: the pIC50 is 6.89 in data set [1], 6.08 in data set [2] and 6.04 in data set [3].

As to `Cc1noc(NCc2ccncc2)c1C(=O)Nc1ccc(C(F)(F)F)c(C(F)(F)F)c1`, the pIC50 is less than 5.00 in data set [1], 5.37 in data set [2] and less than 5.00 in data set [3].

Turning to `Cn1ncc(NCc2ccncc2)c1C(=O)Nc1ccc(C(F)(F)F)cc1`, the pIC50 in data set [1] is 6.89; in data set [2], 6.55; in data set [3], 6.51.

Regarding `Cc1ccc(NC(=O)c2c(NCc3ccncc3)ncn2C)c(F)c1`, the pIC50 in data set [1] is 5.90; in data set [2], 6.08; in data set [3], 5.87.

For `COc1ccc(NC(=O)c2c(NCc3ccncc3)cnn2C)cc1OC`, the pIC50 in data set [1] was 7.04; in data set [2], 6.46; in data set [3], 6.29.

Take `Cc1noc(NCc2ccncc2)c1C(=O)Nc1ccc(Cc2ccccc2)cc1`: the results for the pIC50 in data set [1], in data set [2] and in data set [3] were less than 5.00, 5.24 and less than 5.00, respectively.

For `Cc1noc(NCc2ccncc2)c1C(=O)Nc1ccc(Oc2ccccc2)cc1`, the pIC50 in data set [1], in data set [2] and in data set [3] was less than 5.00 throughout.

As to `Cn1ncc(NCc2ccncc2)c1C(=O)Nc1cnc2ccccc2c1`, the pIC50 in data set [1] is 5.94; in data set [2] it was 6.55; in data set [3] it was 6.28.

With `Cn1cnc(NCc2ccncc2)c1C(=O)Nc1ccc2c(c1)CN=N2`, the values for the pIC50 in data set [1], in data set [2] and in data set [3] were less than 5.00, 5.22 and less than 5.00, respectively.

On to `COc1ccc(NC(=O)c2c(C)noc2NCc2ccncc2)cc1OC`, for which the pIC50 in data set [1] was less than 5.00; in data set [2], 5.92; in data set [3] it was 5.47.

`Cn1cnc(NCc2ccncc2)c1C(=O)NCc1ccc2c(c1)OCO2`: the pIC50 is 6.13 in data set [1], 6.19 in data set [2] and 5.95 in data set [3].

In the case of `Cn1cnc(NCc2ccncc2)c1C(=O)Nc1cccc(Cl)c1`, the pIC50 in data set [1] was less than 5.00; in data set [2], 5.69; in data set [3], 5.49.

The values are drawn from ChEMBL document CHEMBL1139078, “ortho-Substituted azoles as selective and dual inhibitors of VEGF receptors 1 and 2” (Bioorg Med Chem Lett, 2007).
